Assay results reported in the supplement of paper PMC10307832.

Key:
Experiment in all cases: relative viability (nuclei count vs DMSO), 5 days (fraction); higher = more cells survive
[1] = tested on: BEN
Procedure, shortened: (§1)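 Lung cancer cell lines in 1536-well plates got either a single drug or a fixed anchor-drug dose together with five library-drug doses (not always all listed) in √10 steps, by pin tool, on the day after seeding. Nuclei were counted after 5 days, and relative viability is the treated-to-vehicle ratio of nuclei counts. Values are medians of duplicate plates.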

[2] = tested on: EKVX
Procedure, shortened: as §1

[3] = tested on: HARA
Procedure, shortened: as §1

[4] = tested on: HCC-366
Procedure, shortened: as §1

[5] = tested on: HCC-827
Procedure, shortened: as §1

[6] = tested on: LOU-NH91
Procedure, shortened: as §1

[7] = tested on: NCI-H1355
Procedure, shortened: as §1

[8] = tested on: NCI-H1437
Procedure, shortened: as §1

[9] = tested on: NCI-H1734
Procedure, shortened: as §1

[10] = tested on: NCI-H1792
Procedure, shortened: as §1

[11] = tested on: NCI-H1993
Procedure, shortened: as §1

[12] = tested on: NCI-H2009
Procedure, shortened: as §1

[13] = tested on: NCI-H2087
Procedure, shortened: as §1

[14] = tested on: NCI-H2405
Procedure, shortened: as §1

[15] = tested on: NCI-H647
Procedure, shortened: as §1

[16] = tested on: NCI-H661
Procedure, shortened: as §1

[17] = tested on: SK-LU-1
Procedure, shortened: as §1

[18] = tested on: NCI-H1395
Procedure, shortened: as §1

[19] = tested on: SK-MES-1
Procedure, shortened: as §1

Which results are given for Nc1ccn([C@@H]2O[C@H](CO)[C@@H](O)[C@@H]2O)c(=O)n1 [Cytarabine] + CC(C)C[C@H](NC(=O)[C@H](Cc1ccccc1)NC(=O)c1cnccn1)B(O)O [Bortezomib] (partner 0.002 µM)?
relative viability ([1]; first compound 0.005 µM): 0.667; relative viability ([1]; first compound 0.01581 µM): 0.742; relative viability ([1]; first compound 0.05 µM): 0.413; relative viability ([1]; first compound 0.1581 µM): 0.282; relative viability ([1]; first compound 0.5 µM): 0.233; relative viability ([2]; first compound 0.005 µM): 1.22; relative viability ([2]; first compound 0.01581 µM): 0.947; relative viability ([2]; first compound 0.05 µM): 0.801; relative viability ([2]; first compound 0.1581 µM): 0.361; relative viability ([2]; first compound 0.5 µM): 0.178; relative viability ([3]; first compound 0.005 µM): 0.725; relative viability ([3]; first compound 0.01581 µM): 0.642; relative viability ([3]; first compound 0.05 µM): 0.652; relative viability ([3]; first compound 0.1581 µM): 0.179; relative viability ([3]; first compound 0.5 µM): 0.139; relative viability ([4]; first compound 0.005 µM): 1.16; relative viability ([4]; first compound 0.01581 µM): 0.911; relative viability ([4]; first compound 0.05 µM): 0.479; relative viability ([4]; first compound 0.1581 µM): 0.0971; relative viability ([4]; first compound 0.5 µM): 0.036; relative viability ([5]; first compound 0.005 µM): 0.996; relative viability ([5]; first compound 0.01581 µM): 0.674; relative viability ([5]; first compound 0.05 µM): 0.474; relative viability ([5]; first compound 0.1581 µM): 0.459; relative viability ([5]; first compound 0.5 µM): 0.329; relative viability ([6]; first compound 0.005 µM): 0.406; relative viability ([6]; first compound 0.01581 µM): 0.47; relative viability ([6]; first compound 0.05 µM): 0.388; relative viability ([6]; first compound 0.1581 µM): 0.338; relative viability ([6]; first compound 0.5 µM): 0.357; relative viability ([7]; first compound 0.005 µM): 1.02; relative viability ([7]; first compound 0.01581 µM): 1.18; relative viability ([7]; first compound 0.05 µM): 0.927; relative viability ([7]; first compound 0.1581 µM): 0.644; relative viability ([7]; first compound 0.5 µM): 0.389; relative viability ([8]; first compound 0.005 µM): 0.334; relative viability ([8]; first compound 0.01581 µM): 0.287; relative viability ([8]; first compound 0.05 µM): 0.243; relative viability ([8]; first compound 0.1581 µM): 0.18; relative viability ([8]; first compound 0.5 µM): 0.16; relative viability ([9]; first compound 0.005 µM): 0.515; relative viability ([9]; first compound 0.01581 µM): 0.377; relative viability ([9]; first compound 0.05 µM): 0.347; relative viability ([9]; first compound 0.1581 µM): 0.149; relative viability ([9]; first compound 0.5 µM): 0.159; relative viability ([10]; first compound 0.005 µM): 0.925; relative viability ([10]; first compound 0.01581 µM): 0.93; relative viability ([10]; first compound 0.05 µM): 0.795; relative viability ([10]; first compound 0.1581 µM): 0.565; relative viability ([10]; first compound 0.5 µM): 0.55; relative viability ([11]; first compound 0.005 µM): 1.1; relative viability ([11]; first compound 0.01581 µM): 0.964; relative viability ([11]; first compound 0.05 µM): 1; relative viability ([11]; first compound 0.1581 µM): 0.768; relative viability ([11]; first compound 0.5 µM): 0.62; relative viability ([12]; first compound 0.005 µM): 1.05; relative viability ([12]; first compound 0.01581 µM): 1.03; relative viability ([12]; first compound 0.05 µM): 0.952; relative viability ([12]; first compound 0.1581 µM): 0.634; relative viability ([12]; first compound 0.5 µM): 0.311; relative viability ([13]; first compound 0.005 µM): 0.631; relative viability ([13]; first compound 0.01581 µM): 1.01; relative viability ([13]; first compound 0.05 µM): 0.84; relative viability ([13]; first compound 0.1581 µM): 0.573; relative viability ([13]; first compound 0.5 µM): 0.338; relative viability ([14]; first compound 0.005 µM): 0.911; relative viability ([14]; first compound 0.01581 µM): 0.694; relative viability ([14]; first compound 0.05 µM): 0.662; relative viability ([14]; first compound 0.1581 µM): 0.943; relative viability ([14]; first compound 0.5 µM): 1.03; relative viability ([15]; first compound 0.005 µM): 0.695; relative viability ([15]; first compound 0.01581 µM): 0.423; relative viability ([15]; first compound 0.05 µM): 0.513; relative viability ([15]; first compound 0.1581 µM): 0.113; relative viability ([15]; first compound 0.5 µM): 0.081; relative viability ([16]; first compound 0.005 µM): 0.997; relative viability ([16]; first compound 0.01581 µM): 0.667; relative viability ([16]; first compound 0.05 µM): 0.596; relative viability ([16]; first compound 0.1581 µM): 0.381; relative viability ([16]; first compound 0.5 µM): 0.246; relative viability ([17]; first compound 0.005 µM): 0.818; relative viability ([17]; first compound 0.01581 µM): 0.69; relative viability ([17]; first compound 0.05 µM): 0.558; relative viability ([17]; first compound 0.1581 µM): 0.393; relative viability ([17]; first compound 0.5 µM): 0.296

Which results are given for Nc1ccn([C@@H]2O[C@H](CO)[C@@H](O)[C@@H]2O)c(=O)n1 [Cytarabine] + C[C@]1(O)C[C@@H](c2nc(-c3ccc4ccc(-c5ccccc5)nc4c3)c3c(N)nccn32)C1 [Linsitinib] (partner 1 µM)?
relative viability ([1]; first compound 0.005 µM): 0.616; relative viability ([1]; first compound 0.01581 µM): 0.775; relative viability ([1]; first compound 0.05 µM): 0.557; relative viability ([1]; first compound 0.1581 µM): 0.423; relative viability ([1]; first compound 0.5 µM): 0.307; relative viability ([2]; first compound 0.005 µM): 0.731; relative viability ([2]; first compound 0.01581 µM): 0.853; relative viability ([2]; first compound 0.05 µM): 0.945; relative viability ([2]; first compound 0.1581 µM): 0.585; relative viability ([2]; first compound 0.5 µM): 0.242; relative viability ([3]; first compound 0.005 µM): 0.851; relative viability ([3]; first compound 0.01581 µM): 0.608; relative viability ([3]; first compound 0.05 µM): 0.396; relative viability ([3]; first compound 0.1581 µM): 0.174; relative viability ([3]; first compound 0.5 µM): 0.0936; relative viability ([4]; first compound 0.005 µM): 0.725; relative viability ([4]; first compound 0.01581 µM): 0.393; relative viability ([4]; first compound 0.05 µM): 0.178; relative viability ([4]; first compound 0.1581 µM): 0.0468; relative viability ([4]; first compound 0.5 µM): 0.0253; relative viability ([5]; first compound 0.005 µM): 0.631; relative viability ([5]; first compound 0.01581 µM): 0.604; relative viability ([5]; first compound 0.05 µM): 0.488; relative viability ([5]; first compound 0.1581 µM): 0.266; relative viability ([5]; first compound 0.5 µM): 0.262; relative viability ([6]; first compound 0.005 µM): 0.996; relative viability ([6]; first compound 0.01581 µM): 0.904; relative viability ([6]; first compound 0.05 µM): 0.82; relative viability ([6]; first compound 0.1581 µM): 0.54; relative viability ([6]; first compound 0.5 µM): 0.566; relative viability ([7]; first compound 0.005 µM): 0.788; relative viability ([7]; first compound 0.01581 µM): 0.8; relative viability ([7]; first compound 0.05 µM): 0.627; relative viability ([7]; first compound 0.1581 µM): 0.451; relative viability ([7]; first compound 0.5 µM): 0.32; relative viability ([18]; first compound 0.005 µM): 0.89; relative viability ([18]; first compound 0.01581 µM): 0.709; relative viability ([18]; first compound 0.05 µM): 0.784; relative viability ([18]; first compound 0.1581 µM): 0.466; relative viability ([18]; first compound 0.5 µM): 0.38; relative viability ([8]; first compound 0.005 µM): 0.746; relative viability ([8]; first compound 0.01581 µM): 0.678; relative viability ([8]; first compound 0.05 µM): 0.477; relative viability ([8]; first compound 0.1581 µM): 0.19; relative viability ([8]; first compound 0.5 µM): 0.147; relative viability ([9]; first compound 0.005 µM): 0.512; relative viability ([9]; first compound 0.01581 µM): 0.328; relative viability ([9]; first compound 0.05 µM): 0.257; relative viability ([9]; first compound 0.1581 µM): 0.141; relative viability ([9]; first compound 0.5 µM): 0.128; relative viability ([10]; first compound 0.005 µM): 0.46; relative viability ([10]; first compound 0.01581 µM): 0.492; relative viability ([10]; first compound 0.05 µM): 0.34; relative viability ([10]; first compound 0.1581 µM): 0.348; relative viability ([10]; first compound 0.5 µM): 0.283; relative viability ([11]; first compound 0.005 µM): 0.703; relative viability ([11]; first compound 0.01581 µM): 0.795; relative viability ([11]; first compound 0.05 µM): 0.672; relative viability ([11]; first compound 0.1581 µM): 0.539; relative viability ([11]; first compound 0.5 µM): 0.471; relative viability ([12]; first compound 0.005 µM): 1.11; relative viability ([12]; first compound 0.01581 µM): 1.12; relative viability ([12]; first compound 0.05 µM): 1.19; relative viability ([12]; first compound 0.1581 µM): 0.83; relative viability ([12]; first compound 0.5 µM): 0.411; relative viability ([13]; first compound 0.005 µM): 0.958; relative viability ([13]; first compound 0.01581 µM): 1.07; relative viability ([13]; first compound 0.05 µM): 0.827; relative viability ([13]; first compound 0.1581 µM): 0.752; relative viability ([13]; first compound 0.5 µM): 0.623; relative viability ([14]; first compound 0.005 µM): 0.933; relative viability ([14]; first compound 0.01581 µM): 0.714; relative viability ([14]; first compound 0.05 µM): 0.661; relative viability ([14]; first compound 0.1581 µM): 0.498; relative viability ([14]; first compound 0.5 µM): 0.383; relative viability ([15]; first compound 0.005 µM): 0.729; relative viability ([15]; first compound 0.01581 µM): 0.55; relative viability ([15]; first compound 0.05 µM): 0.394; relative viability ([15]; first compound 0.1581 µM): 0.148; relative viability ([15]; first compound 0.5 µM): 0.061; relative viability ([16]; first compound 0.005 µM): 0.624; relative viability ([16]; first compound 0.01581 µM): 0.529; relative viability ([16]; first compound 0.05 µM): 0.445; relative viability ([16]; first compound 0.1581 µM): 0.286; relative viability ([16]; first compound 0.5 µM): 0.21; relative viability ([17]; first compound 0.005 µM): 0.954; relative viability ([17]; first compound 0.01581 µM): 0.918; relative viability ([17]; first compound 0.05 µM): 0.922; relative viability ([17]; first compound 0.1581 µM): 0.476; relative viability ([17]; first compound 0.5 µM): 0.39; relative viability ([19]; first compound 0.005 µM): 0.905; relative viability ([19]; first compound 0.01581 µM): 0.82; relative viability ([19]; first compound 0.05 µM): 0.368; relative viability ([19]; first compound 0.1581 µM): 0.252; relative viability ([19]; first compound 0.5 µM): 0.255
